Assay results as given in patent US4325970A, “15-Acetyl-prostaglandins” (Hoffmann-La Roche Inc., priority 1980, dated 1982).
Like-named read-outs stand apart in the source and are kept apart here.

Experiments:
[1] = system: gastric secretion; assay: gastric secretory depressant test in the unanesthetized rat with acute gastric fistula (acid concentration, acid output, pH); assay type: in vivo; details: for % Inhibition, acid concentration (S.E.M.) / % Inhibition, acid output (S.E.M.): 10 μg/kg b.w. I.G.
Procedure: were tested as gastric secretory depressants in the unanesthesized rat with acute gastric fistula by the following procedure:
During this baseline period, the pH of the secretory flow was about 1.5 for each animal. Individual samples were collected at 10-minute intervals during this baseline period to monitor the pH. The compounds dissolved in polyethylene glycol-400 were administered intragastrically (I.G.) after this baseline period and samples were continuously collected for up to 180 minutes. The samples of gastric contents were subsequently assayed for volume, total acid concentration (μEq/ml) and total acid output for 10 minutes (μEq/10 minutes).
In addition to intragastric (I.G.) dosages, the activity of these compounds was tested for intraduodenal (I.D.) and intravenous administration (I.V.) to unanesthetized rats with acute gastric fistula as described above. For I.D. administration, the compounds were dissolved in polyethylene glycol-400. On the other hand, a trimethylolnitro-methane/ethanol solution was used for I.V. dosing. […] With this dose and route of administration of Compound A, a pronounced effect on pH was seen, an average increase of 3.1 pH units over 3 hours post administration. With the I.G. dose of Compound A of 5 μg/Kg b.w., an average increase of 1.6 pH units occurred. […] The antisecretory effect of Compound A seen after I.V. administration (10 μg/Kg b.w.) was low, amounting to about 1/4 to 1/5 that seen following I.G. dosage of Compound A. With the I.V. route of administration at this dose of Compound A (10 μg/Kg b.w.) effect on pH was minimal, 1/10 to 1/20 that seen after I.G. administration of an identical dose of Compound A.

[2] = system: acid secretion; assay: acid secretion in three conscious dog models (Heidenhain pouches, Pavlov pouches or gastric fistulae); assay type: in vivo
Excerpt: These models consisted of concious dogs prepared with Heidenhain pouches, Pavlov pouches or gastric fistulae.

[3] = system: gastric secretion stimulated by histamine; assay: Heidenhain pouch dog test, histamine-stimulated gastric secretion; assay type: in vivo, dog (mongrel)
Procedure: Compound A was next tested at a dose level which would cause a definite and reproducible pharmacological effect.
The Heindenhain pouch test involved collecting gastric juice from the denervated (Heidenhain) gastric pouches of mongrel dogs. This collection was accomplished by gravity drainage, using a specially manufactured titanium cannula. Gastric secretion was stimulated by intravenous infusion of a saline solution of histamine hydrochloride, 20 μg/kg/hr, injected at a rate of 1 ml/min. This submaximal stimulation elicited acid secretion approximately 30% of maximal, without the tachycardia commonly observed with higher doses of histamine. Samples of gastric juice were collected at 15-min intervals. Compound A was administered orally via a 1/4 oz. hard gelatin capsule. The animals were dosed 90 min after the start of histamine infusion and the test continued for 9 hours post-drug administration. The dogs were concious and stood quietly in Pavlov slings during the experiments. Sample volume was measured, and pH, acid concentration (mEq/L), acid output (mEq/15-min periods), as well as pepsin concentration and output were determined. Vital signs were monitored throughout the test and kennel observations continued for 24 hr.
The indexes chosen to assess drug efficacy were acid concentration and acid output. These parameters were expressed as a percentage of the average of the three 15-min values prior to dosage. […] […] Values of pH increased from a control average of 1.0 to a maximum of 2.0 six hours post drug. Analysis of control data for this group of Heindenhain-pouch dogs indicated no significant decrease in gastric juice volumes from control levels during these extended studies. In these control animals, pH values averaged 0.9 throughout the entire experiment. Therefore, no significant decreases in acid concentration or output would be expected in the control results.

[4] = system: gastric microbleeding induced by aspirin; assay type: in vivo, rat; details: for blood lost after Compound A in combination with aspirin: intragastric, one hour
Excerpt: To study the effects of Compound A on gastric microbleeding induced by aspirin, a technique was developed based on that used by Menasse-Gdynia and Krupp, Toxicol, Appl. Pharmacol. 29, 389-396. The technique involves the microsurgical preparation of rats so as to isolate the stomach in an accessible, perfused system and the utilization of chromium-51-labelled red blood cells (^51 Cr-RBC) as a convenient handle for the assessment of bleeding from drug-induced gastric microlesions.
Rats were microsurgically implanted with a cannula in the vena cava (for the injection of ^51 Cr-RBC), a cannula in the forestomach (for constant infusion of tap water) and a cannula in the duodenum at the pyloric sphincter (for collection ot total gastric effluent). After a 30 min wash with tap water infused at 5.5 m/hr, each animal was administered either aspirin (100 mg/kg) or aspirin in combination with Compound A. Ease dose was administered intragastrically in 1 ml 40% polyethylene glycol (having molecular weight of 400) vehicle and allowed to remain in the stomach for 15 min. Simultaneously 0.9 ml ^51 Cr-RBC (3×10^6) was administered through the vena cava. Gastric effluent was collected every 5 min for a total of […]. Radioactivity was determined in a gamma counter. The results are expressed as microliters of whole blood lost during the 60 min experiments, based on the following formula: [formula]

[5] = 20 minutes after administration
[6] = 30 minutes after administration
[7] = 40 minutes after administration
[8] = 50 minutes after administration
[9] = 60 minutes after administration
[10] = 70 minutes after administration
[11] = 80 minutes after administration
[12] = 90 minutes after administration
[13] = 100 minutes after administration
[14] = 110 minutes after administration
[15] = 120 minutes after administration
[16] = 130 minutes after administration
[17] = 140 minutes after administration
[18] = 150 minutes after administration
[19] = 160 minutes after administration
[20] = 170 minutes after administration
[21] = 180 minutes after administration
[22] = Compound A 10 μg/kg + aspirin 100 mg/kg

CCCCC(C)(C)[C@H](O)/C=C/C1[C@H](C)CC(=O)[C@@H]1C/C=C\CCCC(=O)O (stereo in doubt) [Compound B, (8R,11R,12S,15R,5Z,13E)-15-hydroxy-11,16,16-trimethyl-9-oxoprosta-5,13-dien-1-oic acid, reference compound]
% Inhibition, acid concentration (S.E.M.) [1, 5]: 62 (5) %
% Inhibition, acid output (S.E.M.) [1, 5]: 69 (3) %
% Inhibition, acid concentration (S.E.M.) [1, 6]: 67 (6) %
% Inhibition, acid output (S.E.M.) [1, 6]: 72 (2) %
% Inhibition, acid concentration (S.E.M.) [1, 7]: 58 (6) %
% Inhibition, acid output (S.E.M.) [1, 7]: 68 (6) %
% Inhibition, acid concentration (S.E.M.) [1, 8]: 59 (5) %
% Inhibition, acid output (S.E.M.) [1, 8]: 73 (2) %
% Inhibition, acid concentration (S.E.M.) [1, 9]: 43 (5) %
% Inhibition, acid output (S.E.M.) [1, 9]: 78 (7) %
% Inhibition, acid concentration (S.E.M.) [1, 10]: 45 (5) %
% Inhibition, acid output (S.E.M.) [1, 10]: 71 (3) %
% Inhibition, acid concentration (S.E.M.) [1, 11]: 44 (6) %
% Inhibition, acid output (S.E.M.) [1, 11]: 77 (7) %
% Inhibition, acid concentration (S.E.M.) [1, 12]: 25 (13) %
% Inhibition, acid output (S.E.M.) [1, 12]: 57 (17) %

CCCCC(C)(C)[C@@H](/C=C/C1[C@H](C)CC(=O)[C@@H]1C/C=C\CCCC(=O)O)OC(C)=O (stereo in doubt) [Compound A, (8R,11R,12S,15R,5Z,13E)-15-acetyloxy-11,16,16-trimethyl-9-oxoprosta-5,13-dien-1-oic acid]
duration of action ([1]; 5 μg/Kg I.G.): 110 min
response in pH relative to that seen with the 10 μg/Kg b.w. dose of Compound A ([1]; 5 μg/Kg I.G. vs 10 μg/Kg I.G.): about 50%
average increase of pH ([1]; 5 μg/Kg b.w. I.G.): 1.6 pH units
effect on pH compared with 10 μg/Kg I.G. of Compound B ([1]; 5 μg/Kg b.w. I.G.): essentially equivalent to that of the 10 μg/Kg I.G. of Compound B
duration of action ([1]; 10 μg/Kg I.G.): 180 min
effect on acid concentration and output compared with I.G. dosage ([1]; 10 μg/Kg b.w. I.D.): no different to the I.G. dosage of Compound A
effect on pH compared with I.G. route ([1]; 10 μg/Kg b.w. I.D.): much lower than by the I.G. route
average increase of pH ([1]; 10 μg/Kg b.w. I.G. (printed 10 g/Kg), over 3 hours post administration): 3.1 pH units
antisecretory effect ([1]; 10 μg/Kg b.w. I.V.): low
effect on pH ([1]; 10 μg/Kg b.w. I.V.): minimal
% Inhibition, acid concentration (S.E.M.) [1, 5]: 34 (16) %
% Inhibition, acid output (S.E.M.) [1, 5]: 39 (14) %
% Inhibition, acid concentration (S.E.M.) [1, 6]: 91 (9) %
% Inhibition, acid output (S.E.M.) [1, 6]: 91 (9) %
% Inhibition, acid concentration (S.E.M.) [1, 7]: 70 (14) %
% Inhibition, acid output (S.E.M.) [1, 7]: 69 (17) %
% Inhibition, acid concentration (S.E.M.) [1, 8]: 50 (17) %
% Inhibition, acid output (S.E.M.) [1, 8]: 43 (20) %
% Inhibition, acid concentration (S.E.M.) [1, 9]: 67 (21) %
% Inhibition, acid output (S.E.M.) [1, 9]: 73 (17) %
% Inhibition, acid concentration (S.E.M.) [1, 10]: 67 (21) %
% Inhibition, acid output (S.E.M.) [1, 10]: 74 (17) %
% Inhibition, acid concentration (S.E.M.) [1, 11]: 67 (21) %
% Inhibition, acid output (S.E.M.) [1, 11]: 79 (16) %
% Inhibition, acid concentration (S.E.M.) [1, 12]: 80 (20) %
% Inhibition, acid output (S.E.M.) [1, 12]: 80 (20) %
% Inhibition, acid concentration (S.E.M.) [1, 13]: 67 (20) %
% Inhibition, acid output (S.E.M.) [1, 13]: 60 (25) %
% Inhibition, acid concentration (S.E.M.) [1, 14]: 60 (24) %
% Inhibition, acid output (S.E.M.) [1, 14]: 68 (20) %
% Inhibition, acid concentration (S.E.M.) [1, 15]: 67 (20) %
% Inhibition, acid output (S.E.M.) [1, 15]: 72 (20) %
% Inhibition, acid concentration (S.E.M.) [1, 16]: 80 (19) %
% Inhibition, acid output (S.E.M.) [1, 16]: 80 (20) %
% Inhibition, acid concentration (S.E.M.) [1, 17]: 100 (0) %
% Inhibition, acid output (S.E.M.) [1, 17]: 100 (0) %
% Inhibition, acid concentration (S.E.M.) [1, 18]: 72 (17) %
% Inhibition, acid output (S.E.M.) [1, 18]: 92 (5) %
% Inhibition, acid concentration (S.E.M.) [1, 19]: 80 (16) %
% Inhibition, acid output (S.E.M.) [1, 19]: 82 (18) %
% Inhibition, acid concentration (S.E.M.) [1, 20]: 80 (15) %
% Inhibition, acid output (S.E.M.) [1, 20]: 80 (20) %
% Inhibition, acid concentration (S.E.M.) [1, 21]: 67 (33) %
% Inhibition, acid output (S.E.M.) [1, 21]: 71 (29) %
antisecretory effects ([1]; I.G. dose 10 g/Kg [sic] b.w.): pronounced antisecretory effects
duration of antisecretory effect ([1]; I.G. dose 10 g/Kg [sic] b.w.): at least 3 hours
duration of antisecretory effect compared with Compound B ([1]; I.G. dose 10 g/Kg [sic] b.w.): significantly longer than that seen with Compound B
inhibition of acid secretion ([2]; 50 to 100 μg/kg I.V.): at best, intermittent, slight to moderate inhibition of acid secretion of short duration
inhibition of acid secretion ([2]; oral and intrapouch dose of 10 to 50 μg/kg): at best, intermittent, slight to moderate inhibition of acid secretion of short duration
activity ([3]; 100 μg/kg p.o.): potential for significant activity
dogs with 50% or better acid reduction for more than two hours ([3]; 100 μg/kg p.o., six dogs): Three of the six dogs
acid reduction ([3]; 100 μg/kg p.o., in three of the six dogs, for more than two hours post dosage): ≥ 50%
duration of 50% or better acid reduction ([3]; 100 μg/kg p.o., three of the six dogs): more than two hours
activity compared with 500 μg/kg level ([3]; 250 μg/kg oral): almost as good as that found at the 500 μ/kg level
antisecretory activity ([3]; 500 μg/kg oral): marked antisecretory activity of long duration
duration of >60% inhibition of acid output ([3]; 500 μg/kg oral): > 9 h
start of >60% inhibition of acid output after administration ([3]; 500 μg/kg oral): 45 min
inhibition of acid output ([3]; 500 μg/kg oral, beginning 45 minutes after administration, longer than 9 hours, mean=0.38 mEq/15 minutes): > 60%
reduction of the acid concentration from control values ([3]; 500 μg/kg oral, constant between 4 and 5 3/4 hours post drug, control mean=136 mg/L as printed): ≥ 50%
maximum pH of gastric juice ([3]; 500 μg/kg oral, six hours post drug, from a control average of 1.0): 2.0
blood lost after Compound A in combination with aspirin ([4]; Compound A 1.25 μg/kg + aspirin 100 mg/kg): 178 µL
blood lost after Compound A in combination with aspirin ([4]; Compound A 2.5 μg/kg + aspirin 100 mg/kg): 56 µL
prevention of aspirin-induced microbleeding [4, 22]: complete prevention
blood lost after Compound A in combination with aspirin [4, 22]: 0 µL
effect on aspirin-induced bleeding ([4]; Compound A 1.25, 2.5 or 10 μg/kg + aspirin 100 mg/kg): reduced or prevented bleeding in a dose-dependent manner
